Entries after “also recorded” stand apart in the source; their conditions may differ.
Key:
Tp53−/− MEF cells = assay: Clonogenic survival assay, Tp53−/− MEF; type: cell-based, mouse
Method: (§1) Briefly, MEF cells were trypsinized and the appropriate number of cells was replated on 10 cm tissue culture dishes. […] Cells were fixed and stained using staining solution (0.05% crystal violet, 50% methanol in PBS); colonies were counted using an AlphaImager 3400 (Alpha Innotech Inc.). The percent of survival was determined as described (Hall & Giccia, 2005, “Radiobiology for the Radiologist”, 6th Ed., Philadelphia, Pa.: Lippincott Williams & Wilkins, pp. 30-45). The percent of survival obtained from untreated cells was normalized to 100% survival.

RAD51 [1] = assay: Western blotting, RAD51 expression level; type: cell-based, human; details: B02 20 μM versus no treatment
Method: The pellets were washed three times with cold PBS and then resuspended in lysis buffer containing 50 mM HEPES, pH 7.5, 50 mM NaCl, 5 mM EDTA, 1% Triton X-100, 50 mM NaF, and 10 mM Na4P2O7, 1 mM PMSF, and proteinase inhibitor cocktail (Roche Applied Science) for 30 min at 4° C. The cell lysates were centrifuged at 16,000×g, for 15 min at 4° C., and then the supernatants were collected and protein concentrations were determined using the Bradford assay. Aliquots containing 50 Ξg of total protein were analyzed by 12% SDS-PAGE. […]
Then, both pCBASce-transfected and untransfected cells were trypsinized and resuspended in DMEM supplemented with 10% FBS, 100 units/ml penicillin and 100 μg/ml streptomycin. […] The supernatants were collected and protein concentrations were determined by the Bradford assay using bovine serum albumin (BSA) as a standard. […] Immunoblot signals were detected using Enhanced Chemiluminescence (ECL) reagent (Pierce). […]

RAD51 [2] = target: T1, RAD51 (Homo sapiens, UniProt Q06609); assay: DNA binding assay (RAD51-ssDNA complexes); type: biochemical; details: B02 25 μM, without NaCl challenge
T1 construct: made in house
T1 sequence (Q06609 1-339): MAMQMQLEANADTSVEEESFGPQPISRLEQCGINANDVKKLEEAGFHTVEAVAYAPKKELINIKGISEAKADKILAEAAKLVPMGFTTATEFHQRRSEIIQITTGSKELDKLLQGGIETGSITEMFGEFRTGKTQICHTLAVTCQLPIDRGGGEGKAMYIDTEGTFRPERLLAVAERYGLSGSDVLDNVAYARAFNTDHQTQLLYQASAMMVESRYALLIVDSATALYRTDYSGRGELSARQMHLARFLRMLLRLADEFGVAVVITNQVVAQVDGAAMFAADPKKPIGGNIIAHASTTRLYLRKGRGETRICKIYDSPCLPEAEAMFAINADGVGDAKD
Method: DNA binding assay was performed as described (Bugreev et al., 2005, J. Biol. Chem. 280:26886-95). […] After 10 min, reactions was mixed with 0.2 vol of loading buffer and loaded on 10% polyacrylamide gels (135 V, 20 mA) in 0.5×TBE buffer containing 45 mM Tris borate (pH 8.3) and 0.25 mM EDTA. Gels were quantified using a Storm 840 PhosphorImager.

I-SceI = assay: Western blotting, I-SceI expression level; type: cell-based; details: with or without B02
Method: Then, both pCBASce-transfected and untransfected cells were trypsinized and resuspended in DMEM supplemented with 10% FBS, 100 units/ml penicillin and 100 μg/ml streptomycin. The suspensions were centrifuged at 1000×g for 5 min at 4° C., the pellets were washed 3 times with cold PBS and then resuspended in lysate buffer containing 50 mM HEPES (pH 7.5), 50 mM NaCl, 5 mM EDTA, 1% Triton X-100, 50 mM NaF, and 10 mM Na4P2O7, 1 mM phenylmethylsulfonyl fluoride (PMSF) and proteinase inhibitor cocktail (Roche Applied Science) for 30 min at 4° C. The cell lysates were centrifuged at 16000×g, for 15 min at 4° C. The supernatants were collected and protein concentrations were determined by the Bradford assay using bovine serum albumin (BSA) as a standard. Equivalent amounts of proteins were loaded on 12% SDS-PAGE gels and after electrophoretic separation were transferred on a PVDF membrane (Osmonics, Inc). […] Immunoblot signals were detected using Enhanced Chemiluminescence (ECL) reagent (Pierce). […]

HEK cells = assay: Clonogenic survival, HEK cells sensitivity to cisplatin; type: cell-based, human
Method: as §1
To suppress RAD51 expression, HEK cells were transfected with 100 nM RAD51 siRNA (sc-36361; Santa Cruz Biotechnology). Briefly, cells (1×10^6) were seeded in a 3.5-cm tissue culture plate and incubated overnight, then the medium was removed and the cell layer was washed three times with PBS. Transfection was carried out by adding 1 ml transfection solution containing 100 pmol […] siRNA and 10 μl siRNA transfection reagent (sc-29528; Santa Cruz Biotechnology) in Opti-MEM I Reduced-Serum medium (Invitrogen) to each plate. Six to 7 hours after transfection the medium was replaced with fresh DMEM+. Twenty-four, 48, 72, and 96 h after transfection, the RAD51 level was determined using Western blotting. As a specificity control scrambled siRNA (sc-37007; Santa Cruz Biotechnology) was used instead of RAD51 siRNA.

O=c1c2ccccc2nc(/C=C/c2cccnc2)n1Cc1ccccc1 [Compound B02, (E)-3-benzyl-2-(2-(pyridin-3-yl)vinyl)quinazolin-4(3H)-one]
sensitivity to cisDDP (cisplatin) and MMC (Tp53−/− MEF cells; B02 5 μM): more sensitive; also recorded: increased
cellular viability, B02 alone (Tp53−/− MEF cells; up to 5 μM, Tp53−/− MEF): No decrease of cellular viability; also recorded: did not have a substantial effect
expression of RAD51 (RAD51 [1]): comparable
loss of filaments (RAD51 [2]): 20%
expression of I-SceI protein (I-SceI): did not affect
incubation time at which maximal sensitivity was reached (HEK cells; B02 5 μM, cisplatin 16 μM): 16 h
incubation time required to increase the sensitivity of HEK cells for cisplatin (HEK cells; B02 5 μM, cisplatin 16 μM): 10 to 12 h
sensitization of HEK cells to cisplatin (HEK cells; B02 combined with RAD51 siRNA versus each alone): more strongly sensitized
